Measured values: ChEMBL document CHEMBL4387751, “Development of substituted pyrido[3,2-d]pyrimidines as potent and selective dihydrofolate reductase inhibitors for pneumocystis pneumonia infection” (Bioorg Med Chem Lett, 2019)

Experiments:
[1] = Inhibition of Pneumocystis jirovecii DHFR expressed in Escherichia coli Rosetta-gami B (DE3) assessed as reduction in consumption of NADPH using 9 uM DHFA as substrate
Dihydrofolate reductase [2] = molecular target: T1, Dihydrofolate reductase (Homo sapiens, UniProt P00374); test: Inhibition of recombinant human DHFR assessed as reduction in consumption of NADPH using 9 uM DHFA as substrate
T1 sequence (P00374 whole entry): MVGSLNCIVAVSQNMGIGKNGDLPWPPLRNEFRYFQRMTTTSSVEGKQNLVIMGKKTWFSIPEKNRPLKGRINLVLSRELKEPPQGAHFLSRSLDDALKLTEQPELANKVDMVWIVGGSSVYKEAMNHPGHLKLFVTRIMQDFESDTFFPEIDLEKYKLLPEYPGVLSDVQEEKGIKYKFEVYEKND

[3] = tested on: DHFR (human versus Pneumocystis jirovecii); test: Selectivity ratio of IC50 for inhibition of recombinant human DHFR using 9 uM DHFA as substrate to IC50 for inhibition of Pneumocystis jirovecii DHFR using 9 uM DHFA as substrate; assay type: toxicity; conditions: recombinant human DHFR and Pneumocystis jirovecii DHFR, probe DHFA (substrate), read-out: Ratio IC50
[4] = Inhibition of Pneumocystis jirovecii DHFR expressed in Escherichia coli Rosetta-gami B (DE3) assessed as reduction in consumption of NADPH using 18 uM DHFA as substrate
[5] = tested on: DHFR (human versus Pneumocystis jirovecii); test: Selectivity ratio of IC50 for inhibition of recombinant human DHFR using 18 uM DHFA as substrate to IC50 for inhibition of Pneumocystis jirovecii DHFR using 18 uM DHFA as substrate; assay type: toxicity; conditions: recombinant human DHFR and Pneumocystis jirovecii DHFR, probe DHFA (substrate), read-out: Ratio IC50
Dihydrofolate reductase [6] = molecular target: T2, Dihydrofolate reductase (Rattus norvegicus, UniProt Q920D2); test: Inhibition of rat liver DHFR assessed as reduction in consumption of NADPH using DHFA as substrate
T2 sequence (Q920D2 whole entry): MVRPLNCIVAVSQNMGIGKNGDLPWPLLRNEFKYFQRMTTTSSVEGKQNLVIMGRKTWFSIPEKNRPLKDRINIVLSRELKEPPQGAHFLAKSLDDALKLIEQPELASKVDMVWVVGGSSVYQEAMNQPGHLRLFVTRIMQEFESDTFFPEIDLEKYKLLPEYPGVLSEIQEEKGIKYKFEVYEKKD

[7] = Inhibition of Pneumocystis carinii DHFR expressed in Escherichia coli Rosetta-gami B (DE3) assessed as reduction in consumption of NADPH using DHFA as substrate

Nc1nc(N)c2nc(Nc3ccc4ccccc4c3)ccc2n1
IC50 [1]: 275 nM
IC50 (Dihydrofolate reductase [2]): 3180 nM
selectivity ratio [3]: 12

Nc1nc(N)c2nc(Nc3ccccc3)ccc2n1
IC50 [1]: 122 nM
IC50 (Dihydrofolate reductase [2]): 1530 nM
selectivity ratio [3]: 13

COc1ccc(Nc2ccc3nc(N)nc(N)c3n2)cc1
IC50 [1]: 239 nM
IC50 (Dihydrofolate reductase [2]): 2460 nM

Nc1nc(N)c2cc(Nc3ccccc3)cnc2n1
IC50 [4]: 300 nM
selectivity ratio [5]: < 1

COc1ccc(Nc2cnc3nc(N)nc(N)c3c2)cc1
IC50 [4]: 400 nM

Cc1ccc(Nc2cnc3nc(N)nc(N)c3c2)cc1
IC50 [4]: 620 nM
selectivity ratio [5]: 3

Nc1nc(N)c2cc(Nc3ccc4ccccc4c3)cnc2n1
IC50 [4]: 400 nM
selectivity ratio [5]: 5

Nc1nc(N)c2cc(Nc3cccc4ccccc34)cnc2n1
IC50 [4]: 250 nM
selectivity ratio [5]: 8

Nc1nc(N)c2cc(Nc3cc(F)c(F)c(F)c3)cnc2n1
IC50 [4]: 870 nM
selectivity ratio [5]: 4

COc1ccc(OC)c(NCc2cnc3nc(N)nc(N)c3c2)c1
IC50 (Dihydrofolate reductase [6]): 500 nM

CCCCN(c1ccccc1)c1ccc2nc(N)nc(N)c2n1
IC50 [1]: 66 nM

Nc1nc(N)c2nc(Nc3cccc4ccccc34)ccc2n1
IC50 [1]: 112 nM
IC50 (Dihydrofolate reductase [2]): 1100 nM
selectivity ratio [3]: 10

Cc1ccc(Nc2ccc3nc(N)nc(N)c3n2)cc1
IC50 [1]: 174 nM
IC50 (Dihydrofolate reductase [2]): 2630 nM
selectivity ratio [3]: 15

Nc1nc(N)c2nc(Nc3ccc(F)c(F)c3)ccc2n1
IC50 [1]: 80 nM
IC50 (Dihydrofolate reductase [2]): 2250 nM
selectivity ratio [3]: 28

Nc1nc(N)c2nc(Nc3cc(F)c(F)c(F)c3)ccc2n1
IC50 [1]: 155 nM
selectivity ratio [3]: 12

CCN(c1ccccc1)c1ccc2nc(N)nc(N)c2n1
IC50 [1]: 150 nM

Nc1nc(N)c2nc(Nc3ccc(O)cc3)ccc2n1
IC50 [1]: 150 nM
IC50 (Dihydrofolate reductase [2]): 1580 nM
selectivity ratio [3]: 10

COc1ccc(OC)c(NCc2ccc3nc(N)nc(N)c3n2)c1
IC50 [7]: 1400 nM

COc1cc(NCc2ccc3nc(N)nc(N)c3c2C)cc(OC)c1OC [TRIMETREXATE]
IC50 [4]: 2.1 nM
